Experimental findings from patent US11325937B2, “Glycoside compound and preparation method therefor, composition, application, and intermediate” (SHANGHAI HUTCHISON PHARMACEUTICALS LIMITED, priority 2018, dated 2022) are described below.

Assay [1] has as its system HUVEC-12 endothelial cells. The assay is described as follows: Migration of HUVEC-12 endothelial cells (scratch test). The following applies: direct treatment of HUVEC-12, 24 h; compounds 10 μM, VEGF165 10 ng/mL; vs control medium. In kind it is cell-based, Human. The procedure:
(§1) The experiment included seven groups. In Group 1, HUVEC-12 endothelial cells (purchased from Shanghai RongChuang Biotech Co., Ltd.) were treated directly with simple DMEM medium (Gibcol, Shanghai) containing 10% FBS (SERANA, Germany) (control). In Group 2, the endothelial cells were treated with the supernatant obtained 24 h after macrophages were cultured with DMEM medium containing 10% FBS (s-control). In Group 3, the endothelial cells cultured with DMEM medium containing 10% FBS were treated directly with TG-028 (TG-028, 10 μM). In Group 4, the endothelial cells were treated with the supernatant obtained after macrophages cultured with DMEM medium containing 10% FBS were treated and co-incubated with TG-028 for 24 h (s-TG-028, […]). In Group 5, the endothelial cells cultured with DMEM medium containing 10% FBS were treated directly with Cpd-18 (Salvianolate) (cpd-18, 10 μM). In Group 6, the endothelial cells were treated with the supernatant obtained after macrophages cultured with DMEM medium containing 10% FBS were treated and co-incubated with Cpd-18 (Salvianolate, 10 μM) for 24 h (s-cpd18). In Group 7, the endothelial cells cultured with DMEM medium containing 10% FBS were treated directly with VEGFD (Recombinant Human VEGF165, 10 ng/mL).
Human umbilical vein endothelial cells HUVEC-12 in logarithmic growth phase were counted, adjusted to a cell density of 5×10^5 cells/mL, and inoculated in 1 mL per well in a 6-well plate. The cells were conventionally cultured in an incubator to form monolayer cells of 90% confluency. The 6-well plate fully plated with cells was scratched perpendicular to the cell surface with a 200 μL pipette tip from one end to the other end of the well. The scratches were made transversely with the pipette tip being as perpendicular as possible to the bottom of the plate. […]
The medium was aspirated and the cells scratched off were washed off with PBS. […] The migration of endothelial cells was detected according to the cell scratch method and the relative migration rate was calculated. […]

Assay [2] concerns rats with middle cerebral artery occlusion (MCAO). Put plainly: Acute cerebral infarction model in rats with middle cerebral artery occlusion (MCAO). It counts as in vivo, male SD rats. The following applies: MCAO. From the text: (§2) After obtaining the active molecules that can promote the expression of VEGF-A mRNA in the animal model of inflammatory angiogenesis, a rat model of cerebral infarction was used for further verification. Following the method as described in Longa, E. Z., Longa, E. Z., Weinstein, P. R., Carlson, S. & Commin, R. Reversible middle cerebral artery occlusion without craniectomy in rats. [J]. Stroke, 1989. 1: 84-91, an acute cerebral infarction model was established in rats with middle cerebral artery occlusion (MCAO); and following the method as described in C. dela Torre, T. Fortin, G. A. S. Park, K. S. Butler, P. Kozlowski, B. A. Pappas, H. de Socarraz, J. K. Saunders and M. T. Richard. [J]. Brain Research, 1992. 582:186-195, a chronic cerebral ischemia model was established in rats with permanent ligation of bilateral common carotid arteries (2VO). The inhibition on cerebral infarction and neuroprotection for brain injury of the active molecules screened in Effect Example 2 were verified.
The control drugs were: Edaravone (purchased from Zhejiang Shengtong Biotechnology Co., Ltd.), Clopidogrel bisulfate (purchased from Wuhan Yuancheng Gongchuang Technology Co., Ltd.), and Salvianolate (purchased from Henan Provincial People's Hospital). Clopidogrel bisulfate is a platelet aggregation inhibitor, and Edaravone is a brain protectant (free radical scavenger). The MCAO model of rats was made by the thread occlusion method. The rats used in this effect example were male SD rats weighing 280-320 grams, purchased from Shanghai SLAC Laboratory Animal Co., Ltd. Five SD (Sprague Dawley) rats in each group were administered by intraperitoneal injection, 2 h before surgery, and every 24 h after modeling.
Three days later, the brain was taken, and the rat brain was stained with TTC (2,3,5-triphenyltetrazolium chloride, to detect the cell viability) and then photographed. Infarction rate (%)=(Non-infarction area of right brain section−non-infarction area of left brain section)/total area of brain section*100%. According to t tests, *P<0.05, **P<0.01, ***P<0.001 compared with the model group (MCAO). Infarction inhibition rate (%) at different doses=(infarction rate of model group-infarction rate of treatment group)/infarction rate of model group*100%. The infarction inhibition rate at different doses was plotted, and the ED50 of the drug was calculated.
Moreover, the body weight of the rats was recorded. The rate of body weight change was calculated according to a formula: Rate of body weight change (%)=(final weight-initial weight)/[…].
Three days after the acute cerebral infarction model was established in rats with MCAO, the test rats were scored for neurological function according to the Longa nerve scoring standard.
Three days after the acute cerebral infarction model of MCAO was established in rats, the intact brain tissue was taken out, olfactory bulb and the brain tissue that is 4 mm in front of the frontal pole was removed, and the immediately adjacent brain tissue of 2 mm thick was taken for water content measurement in the brain. The water content in brain tissue is calculated by the formula: (WW−DW)/WW×100%, where WW is the wet weight and DW is the dry weight. Three days after the acute cerebral infarction model of MCAO was established in rats, the brain tissue was stained with Evans Blue (EB, a commonly used azo dye preparation) to evaluate the permeability across the blood-brain barrier (BBB), so as to evaluate the integrity of blood-brain barrier. Both experiments were tested with the optimal dose of each drug previously determined: TG-028 (5 mg/Kg), Salvianolate (20 mg/Kg), Clopidogrel bisulfate (40 mg/Kg), Edaravone (40 mg/Kg).

Assay [3] deals with HUVEC-12 endothelial cells. The assay is described as follows: Tubule formation of HUVEC-12 endothelial cells (Matrigel). In kind it is cell-based, Human. The following applies: direct treatment of HUVEC-12, 3 h; compounds 10 μM, VEGF165 10 ng/mL; vs control medium. The procedure:
as §1
A 96-well plate and sterile yellow pipette tip were stored overnight in a refrigerator at −20° C. The packed Matrigel was thawed overnight in a refrigerator at 4° C. before the experiment. On the following day, the Matrigel thawed was centrifuged for a few minutes. 60 μL per well of the pre-cooled Matrigel was added to a 96-well plate in an ice bath on a ultra-clean bench, and then allowed to stand in an incubator for 1 h. After Matrigel was solidified, HUVEC-12 cells in logarithmic growth phase were taken and adjusted for the cell density. The cells were well mixed with each group of medium at a density of 5×10^4 cells/well and inoculated into a 96-well plate. […] The tube-like structure was analyzed by ImageJ image-analysis software, and the tube formation ability was evaluated using number of master junction as a quantitative index.

In assay [4] the test system is rats with permanent ligation of bilateral common carotid arteries (2VO). The assay is described as follows: Chronic cerebral ischemia model in rats with permanent ligation of bilateral common carotid arteries (2VO). In kind it is in vivo.
Text: as §2
In the later period of the present invention, a chronic cerebral ischemia model was established in rats with permanent ligation of bilateral common carotid arteries (2VO). TG-028 (5 mg/kg) was administered to 5 rats in each group daily by intraperitoneal injection for 3 weeks. The effects of TG-028 and the control drug Edaravone (40 mg/kg) in the rat model of chronic cerebral ischemia were observed.
3 weeks after the establishment of the rat model of 2VO chronic cerebral ischemia, the Morris water maze experiment was performed on the test rats to determine the effects of drugs on animal learning and memory. The test rats were subjected to ambient positioning and memory training for 5 days. On Day 5 of the training, a positioning navigation experiment was carried out, and the duration for each group of rats from the time of entering the water from different water entry points facing the pool wall to the time of finding the platform, that is, the escape incubation period, was recorded. On Day 6, the platform was removed and a space exploration experiment was carried out. The swimming time of the rats in the target quadrant, the dwell time in the target quadrant, the distance in the target quadrant, and the number of passes through the platform were recorded in 120 s from the time of entering water from a quadrant opposing the target quadrant. The results of the water maze positioning and navigation experiment are shown in FIG. 8 (where Sham is a sham operation group).
After permanent ligation of the bilateral common carotid arteries, a 5-day positioning training was carried out, and […] Morris water maze space exploration experiment was performed after the training.

As for VEGF, the “effect on migration of endothelial cells (in words)” value in assay [1] is on record as “significant effect on the migration of endothelial cells”. The “inhibitory effect on cerebral infarction (in words)” value in assay [2] (after 3 days, FIGS. 11-13) is given as “can inhibit cerebral infarction in rats”. In addition, the “effect on tube formation of endothelial cells (in words)” value in assay [3] is “significant effect on the tube formation of endothelial cells”.

By ED50 is commonly meant the dose at which the effect has come halfway, by size or by number of responders. With `CC1=NN(c2ccccc2)C(=O)C1` [Edaravone, reference compound], in assay [2] (Rattus norvegicus, ip, 72 h, intraperitoneal injection, TTC staining after 3 days, read-out: ED50 for infarction inhibition rate (%)), the ED50 was 25.7 mg/kg. The “HE staining and Nissl staining of brain sections, hippocampal CA3 neurons (in words)” value in assay [4] (3 weeks after chronic cerebral ischemia, compared with 2VO+NaCl, FIG. 10) is given as “cell morphology in the 2VO+Edaravone group is also improved”. Besides, the “Morris water maze positioning and navigation: escape incubation period and total distance (in words)” value in assay [4] (TG-028 5 mg/kg, Edaravone 40 mg/kg, 3 weeks of administration, FIG. 8) is “different from those of the 2VO+NaCl group”. Also, the “Morris water maze space exploration: number of passes through the platform compared with 2VO+NaCl group” value in assay [4] (TG-028 5 mg/kg, Edaravone 40 mg/kg, 3 weeks, FIG. 9) is “no significant difference”. Also, the “change in body weight compared with sham operation group (in words)” value in assay [4] (TG-028 5 mg/kg, Edaravone 40 mg/kg, i.p. daily, after 1 week, FIG. 7) is on record as “no significant weight increase compared with the sham operation group”.
